Measured values: patent US8586307B2, “Methods for diagnosing epigenetic, transgenerational effects of environmental toxicants on mammalian germ-lines and treating associated diseases” (priority 2005, dated 2013)

How the values were obtained:
F1 generation testis = conditions: cited from earlier work
[1] = General observations (body weight, litter size, serum testosterone, other tissues); assay type: in vivo, rat
Procedure: In Vivo Procedures: Gestating outbred Sprague-Dawley and inbred Fisher mother rats from timed, pregnant colonies housed at the Washington State University Vivarium, were given intraperitoneal injections of vinclozolin (100 mg/kg/day) and methoxychlor (200 mg/kg/day) from embryonic day 8-15 (E8-E15, sperm positive vaginal smear date=E0) of gestation (F0 generation) as previously described. Gestating mothers administered vehicle, sesame oil or DMSO, served as controls. At least 6 lines (individual F0 injected females) were generated for controls and treated groups for these analyses. Male rats from control and treated groups were collected at P60-P180 for analyses. F1 treated males were bred to F1 treated females to generate the F2 treated generation and F2 treated males were bred to F2 treated females to generate the F3 generation and the F3 were bred in the same manner to generate the F4 generation. Rats for the control groups were bred in the same manner for all the generations. No inbreeding or sibling crosses were generated. The outcross group (VOC) were generated by breeding the F2 treated males with wild-type females (total of 6 litters) and reverse outcross group (RVOC) was generated by breeding F2 treated females with wild-type males (total of 3 litters). Control (n=4) and treated (n=4) male offspring from the F1 generation from Fisher strain rats were collected at P6 for DNA methylation analysis, see below. All procedures have been approved by the Washington State University Animal Care Committee. The number of animals used for replicates in the experiments (i.e. n value) are as follows for vinclozolin treatment: F1 (control 11, treated 12); F2 (control 19, treated 30); F3 (control 19, treated 26); F4 (control 10, treated 17); VOC (18); and RVOC (6). For methoxychlor treatment animal number was for F1 (control 6, treated 9) and F2 (control 16, treated 22).

Structure (SMILES): COc1ccc(C(c2ccc(OC)cc2)C(Cl)(Cl)Cl)cc1 [methoxychlor]
- adult F1 generation testis phenotype (F1 generation testis; gestating mother exposed E8-E15, 100 or 200 mg/kg i.p. daily): reduced spermatogenic capacity, increased spermatogenic cell apoptosis and decreased sperm number and motility
- effect on the F1 generation testis (F1 generation testis; transient exposure E15-E20): no effect
- serum testosterone levels ([1]; all the animals): normal
- effect on total body weight ([1]; endocrine disruptor treatment, F1): no effect
- gross abnormality in any other tissues examined ([1]; rat, in vivo): No gross abnormality
